Laboratory results: patent US20190241535A1, “3-SUBSTITUTED CARBONYL-NAPHTHO[2,3-B]FURANE DERIVATIVE OR PHARMACEUTICALLY ACCEPTABLE SALT THEREOF” (Boston Biomedical, Inc., priority 2014, published 2019)
In brackets after ≈: the same amount, converted by molar mass. Where two headings read alike, the source gives them in different places.

Columns and labels:
Test 3: solubility test = assay type: physicochemical; conditions: kinetic from dmso stock, 1% DMSO, HPLC
Description: Each 15 μL of each test sample (10 mM DMSO solution) was dispensed into 4 Utubes on a 96 well rack. Then, each sample was evaporated to dryness with a rotary evaporator. 3 μL of DMSO was added to each dried sample to be re-dissolved. And, 300 μL of pH 7.4 buffer was added to the 2 wells and 300 μL of pH 1.2 buffer was added to the other 2 wells. After shaking each sample solution, the samples were still stood. Then, each sample solution was centrifuged to remove insoluble matter, and 100 μL of the supernatant was picked up on a 96 well plate. Separately, 2 μL of each test sample (10 mM DMSO solution) was dispensed on a 96 well plate, and diluted with 198 μL of 50% acetonitrile to prepare each 100 μM standard solution. Further, the 100 μM standard solution was diluted with 50% acetonitrile to prepare each 10 μM standard solution. The above test samples for the solubility test and the two kinds of the standard samples were analyzed with a HPLC. The solubility of each test sample was calculated as an area ratio per the standard solutions.

[1] = Test 4: concentration of the test compounds in plasma; assay type: in vivo; conditions: mouse, po, 25 mg/kg, 25 mg/kg po
Description: (§1) Administration method: The test compound scaled to a given weight was suspended in 0.5% methylcellulose to prepare an administration solution. A mouse was weighed, and the administration solution was orally administered to the mouse depending on its weight.
Blood sampling method: EDAT-2K was added to a blood collection tube, into which the blood of the mouse was sampled. The sampled blood was centrifuged to give plasma.
Preparation of standard solution: The test compound scaled to 1 mg was dissolved in 10 mL of MeOH in a volumetric flask to prepare a 100 μg/mL standard solution.
Measure of the concentration in plasma: The 100 μg/mL standard solution was diluted with MeOH to prepare a sample for calibration curve which has the desired concentration. To 50 μL of the sample for calibration curve was added 50 μL of the blank plasma to prepare a sample for plasma calibration curve. To 50 μL of the plasma sample treated with the test compound was added 50 μL of MeOH to prepare a sample for analyzing plasma. To each 100 μL of the sample for plasma calibration curve and the sample for analyzing plasma was added 150 μL of MeOH containing an internal standard respectively. The internal standard used herein was bezafibrate, the concentration of which was 200 nM. Each 5 μL of the samples was analyzed with an LC-MS. The calibration curve was prepared based on the peak ratio of MS peak area of the test sample per that of the internal standard, and the concentration of the sample for plasma calibration curve. The concentration of the test compound in each sample was calculated based on the peak ratio of each sample, and the calibration curve.

FaDu cell = assay: Test 1: growth inhibition in cancer cell (Bulk IC50); assay type: cell-based; conditions: Homo sapiens, 96 h, adherent culture, incubated 4 days, CellTiter-Glo
Description: (§2) HCT-116 cell, HT-29 cell, and FaDu cell were obtained from the American Type Culture Collection (ATCC). HCT-116 cell and HT-29 cell were cultivated at 37° C. in the presence of 5% CO2 using McCoy's 5a medium containing 10% fetal bovine serum (FBS), and 1% penicillin/streptomycin; and FaDu cell was cultivated at 37° C. in the presence of 5% CO2 using MEM containing 10% FBS, 1% non-essential amino acid, 1% sodium pyruvate, and 1% penicillin/streptomycin. Each cell was seeded on μClear-plate black 384 wells (Greiner bio-one Cat. No. 781091) in 300-600 cells/well, and then each test sample was added thereto to adjust the final concentration thereof in DMSO to 0.1% and the test wells were incubated for 4 days. And then, the viable cell count of each sample was measured using CellTiter-Glo® Luminescent Cell Viability Assay (Promega), and the concentration to inhibit the cell growth in each test sample by 50% was calculated (Bulk IC50 Value; μM).

HT-29 cell = assay: as above; assay type: cell-based; conditions: Homo sapiens, 96 h, adherent culture, incubated 4 days, CellTiter-Glo
Description: as §2

HCT-116 cell = assay: as above; assay type: cell-based; conditions: Homo sapiens, 96 h, adherent culture, incubated 4 days, CellTiter-Glo
Description: as §2

[2] = Test 5: concentration of the test compounds in tumor; assay type: in vivo; conditions: mouse, po, 25 mg/kg, 25 mg/kg po
Description: as §1
The picked tumor was put into a tube, and 1 mL of MeOH containing an internal standard was added to the tube. The internal standard used herein was bezafibrate, the concentration of which was 200 nM. The mixture was homogenized with an electric homogenizer to prepare a tumor extract. And, a blank tumor extract was prepared with a tumor derived from an un-treated animal in the same manner. The 100 μg/mL standard solution was diluted with MeOH to prepare a sample for calibration curve which has the desired concentration. To 50 μL of the sample for calibration curve was added 50 μL of the blank tumor extract to prepare a sample for tumor calibration curve. To 50 μL of the tumor extract was added 50 μL of MeOH to prepare a sample for analyzing tumor. Each 5 μL of the samples was analyzed with an LC-MS. The calibration curve was prepared based on the peak ratio of MS peak area of the test sample per that of the internal standard, and the concentration of the sample for tumor calibration curve. The concentration/weight of the test compound in each sample was calculated based on the peak ratio of each sample, and the calibration curve. Then, the obtained weight was divided by the weight in tumor to calculate the concentration of the test compound in tumor.

[3] = animal 1, read-out: Concentration in plasma, animal 1
[4] = animal 2, read-out: Concentration in plasma, animal 2
[5] = animal 3, read-out: Concentration in plasma, animal 3
[6] = mean of 3, read-out: Concentration in plasma, mean
[7] = animal 1, read-out: Concentration in tumor, animal 1
[8] = animal 2, read-out: Concentration in tumor, animal 2

solubility (Test 3: solubility test; aqueous buffer, pH 7.4 buffer, read-out: Solubility pH 7.4): 138 µg/mL (≈ 352 µM)
solubility (Test 3: solubility test; simulated gastric fluid, pH 1.2 buffer, read-out: Solubility pH 1.2): 160 µg/mL (≈ 408 µM)
concentration at 2 hr [1, 3]: 508 ng/mL
concentration at 2 hr [1, 4]: 473 ng/mL
concentration at 2 hr [1, 5]: 384 ng/mL
concentration at 2 hr [1, 6]: 455 ng/mL
concentration at 6 hr [1, 3]: 351 ng/mL
concentration at 6 hr [1, 4]: 2800 ng/mL
concentration at 6 hr [1, 5]: 334 ng/mL
concentration at 6 hr [1, 6]: 1160 ng/mL
IC50 (FaDu cell): 0.5 µM
IC50 (HT-29 cell): 0.64 µM
IC50 (HCT-116 cell): 0.53 µM
concentration at 2 hr [2, 7]: 498 ng/mL
concentration at 2 hr [2, 8]: 260 ng/mL
concentration at 2 hr ([2]; animal 3, read-out: Concentration in tumor, animal 3): 47 ng/mL
concentration at 2 hr ([2]; mean of 3, read-out: Concentration in tumor, mean): 268 ng/mL
concentration at 6 hr [2, 7]: 329 ng/mL
concentration at 6 hr [2, 8]: 157 ng/mL
Structure (SMILES): CN1CCN(C(=O)c2c(C(F)(F)F)oc3c2C(=O)c2ccccc2C3=O)CC1 [Example 8, 3-(4-Methylpiperazine-1-carbonyl)-2-(trifluoromethyl)naphtho[2,3-b]furan-4,9-dione]
